What was measured:
UACC-257 = assay: In vitro tumor cell efficacy test (SRB), Melonoma; assay type: cell-based; conditions: Homo sapiens, UACC-257, Melonoma, 72 hours
SF-295 = assay: In vitro tumor cell efficacy test (SRB), CNS Cancer; assay type: cell-based; conditions: Homo sapiens, SF-295, CNS Cancer, 72 hours
NCI-H460 = assay type: cell-based; conditions: Homo sapiens, NCI-H460, Non-Small Cell Lung Cancer, 72 hours
PC-3 = assay: In vitro tumor cell efficacy test (SRB), Prostate Cancer; assay type: cell-based; conditions: Homo sapiens, PC-3, Prostate Cancer, 72 hours
MDA-MB-435 = assay: In vitro tumor cell efficacy test (SRB), Breast Cancer; assay type: cell-based; conditions: Homo sapiens, MDA-MB-435, Breast Cancer, 72 hours
CAKI-1 = assay: In vitro tumor cell efficacy test (SRB), Renal Cancer; assay type: cell-based; conditions: Homo sapiens, CAKI-1, Renal Cancer, 72 hours
IGROV1 = assay: In vitro tumor cell efficacy test (SRB), Ovarian Cancer; assay type: cell-based; conditions: Homo sapiens, IGROV-1, 72 hours
[1] = system: different cancer cell lines; assay: In vitro tumor cell efficacy test (SRB), mean over all cell lines; assay type: cell-based; conditions: Mean over all cell lines of the table
EKVX = assay type: cell-based; conditions: Homo sapiens, Non-Small Cell Lung Cancer, 72 hours
MCF7 = assay: In vitro tumor cell efficacy test (SRB), Breast Cancer; assay type: cell-based; conditions: Homo sapiens, 72 hours
COLO 205 = assay: In vitro tumor cell efficacy test (SRB), Colon Cancer; assay type: cell-based; conditions: Homo sapiens, COLO 205, Colon Cancer, 72 hours
OVCAR-4 = assay: In vitro tumor cell efficacy test (SRB), Ovarian Cancer; assay type: cell-based; conditions: Homo sapiens, OVCAR-4, Ovarian Cancer, 72 hours
HCT-116 = assay: In vitro tumor cell efficacy test (SRB), Colon Cancer; assay type: cell-based; conditions: Homo sapiens; HCT-116, Colon Cancer, 72 hours
HOP-62 = assay type: cell-based; conditions: Homo sapiens, HOP-62, Non-Small Cell Lung Cancer, 72 hours
SNB-19 = assay: In vitro tumor cell efficacy test (SRB), CNS Cancer; assay type: cell-based; conditions: Homo sapiens, SNB-19, CNS Cancer, 72 hours
MALME-3M = assay: In vitro tumor cell efficacy test (SRB), Melonoma; assay type: cell-based; conditions: Homo sapiens, 72 hours
SK-MEL-5 = assay: In vitro tumor cell efficacy test (SRB), Melonoma; assay type: cell-based; conditions: Homo sapiens, SK-MEL-5, Melonoma, 72 hours
OVCAR-3 = assay: In vitro tumor cell efficacy test (SRB), Ovarian Cancer; conditions: Homo sapiens, OVCAR-3, 72 h
A549/ATCC = assay type: cell-based; conditions: Homo sapiens, Non-Small Cell Lung Cancer, 72 hours
RPMI-8226 = assay: In vitro tumor cell efficacy test (SRB), Leukemia; assay type: cell-based; conditions: Homo sapiens, RPMI-8226, Leukemia, 72 hours
SR = assay: In vitro tumor cell efficacy test (SRB), Leukemia; assay type: cell-based; conditions: Homo sapiens, 72 hours
MDA-N = assay: In vitro tumor cell efficacy test (SRB), Breast Cancer; assay type: cell-based; conditions: Homo sapiens, 72 hours
SF-268 = assay: In vitro tumor cell efficacy test (SRB), CNS Cancer; assay type: cell-based; conditions: Homo sapiens, SF-268, CNS Cancer, 72 hours
SNB-75 = assay: as above; assay type: cell-based; conditions: Homo sapiens, SNB-75, CNS Cancer, 72 hours
SK-MEL-2 = assay: In vitro tumor cell efficacy test (SRB), Melonoma; assay type: cell-based; conditions: Homo sapiens, SK-MEL-2, Melonoma, 72 hours
HCC-2998 = assay: In vitro tumor cell efficacy test (SRB), Colon Cancer; assay type: cell-based; conditions: Homo sapiens, HCC-2998, Colon Cancer, 72 hours
T-47D = assay: In vitro tumor cell efficacy test (SRB), Breast Cancer; assay type: cell-based; conditions: Homo sapiens, T47D, 72 hours
TK-10 = assay: In vitro tumor cell efficacy test (SRB), Renal Cancer; assay type: cell-based; conditions: Homo sapiens; TK-10, Renal Cancer, 72 hours
RXF 393 = assay: as above; assay type: cell-based; conditions: Homo sapiens, RXF 393, Renal Cancer, 72 hours
OVCAR-5 = assay: In vitro tumor cell efficacy test (SRB), Ovarian Cancer; assay type: cell-based; conditions: Homo sapiens; OVCAR-5, Ovarian Cancer, 72 hours
[2] = read-out: Log (LC50) (the source's name) (converted)

## Nc1nccc(-c2cc(-c3ccc(O)cc3)ccc2O)n1 [3-(2-Amino-pyrimidin-4-yl)-biphenyl-4,4′-diol]
UACC-257
  GI50: 1260 nM
UACC-257; [2]
  CC50: > 100000 nM
SF-295
  GI50: 251 nM
SF-295; [2]
  CC50: > 100000 nM
NCI-H460
  GI50: 251 nM
NCI-H460; [2]
  CC50: > 100000 nM
PC-3
  GI50: 251 nM
PC-3; [2]
  CC50: > 100000 nM
MDA-MB-435
  GI50: 251 nM
MDA-MB-435; [2]
  CC50: > 100000 nM
CAKI-1
  GI50: 398 nM
CAKI-1; [2]
  CC50: > 100000 nM
IGROV1
  GI50: 251 nM
IGROV1; [2]
  CC50: > 100000 nM
[1]; read-out: Log (LC50) (M), Mean (converted)
  CC50: > 0.0001 M
[1]; read-out: log (GI50) (M), Mean (converted)
  GI50: 3.16e-07 M
EKVX
  GI50: 251 nM
EKVX; [2]
  CC50: > 100000 nM
MCF7
  GI50: 251 nM
  LC50: > 100000 nM
COLO 205
  GI50: 7940 nM
COLO 205; [2]
  CC50: > 100000 nM
OVCAR-4
  GI50: 316 nM
OVCAR-4; [2]
  CC50: > 100000 nM
HCT-116
  GI50: 158 nM
  LC50 (concentration killing 50% of cells): > 100000 nM
HOP-62
  GI50: 79.4 nM
HOP-62; [2]
  CC50: 7940 nM
SNB-19
  GI50: 200 nM
SNB-19; [2]
  CC50: 20000 nM
MALME-3M
  GI50: 501 nM
MALME-3M; [2]
  CC50: > 100000 nM
SK-MEL-5
  GI50: 100 nM
SK-MEL-5; [2]
  CC50: 20000 nM
OVCAR-3; read-out: Log (LC50) (M) (converted)
  CC50: > 0.0001 M
OVCAR-3; read-out: log (GI50) (M) (converted)
  GI50: 2.51e-07 M
A549/ATCC
  GI50: 316 nM
RPMI-8226
  GI50: 200 nM
RPMI-8226; [2]
  CC50: > 100000 nM
SR
  GI50: 10 nM
SR; [2]
  CC50: > 100000 nM
MDA-N
  GI50: 251 nM
MDA-N; [2]
  CC50: > 100000 nM
SF-268
  GI50: 251 nM
SF-268; [2]
  CC50: > 100000 nM
SNB-75
  GI50: 2000 nM
SNB-75; [2]
  CC50: > 100000 nM
SK-MEL-2
  GI50: 200 nM
SK-MEL-2; [2]
  CC50: 3160 nM
HCC-2998
  GI50: 1260 nM
HCC-2998; [2]
  CC50: > 100000 nM
T-47D
  GI50: 2000 nM
T-47D; [2]
  CC50: 50100 nM
TK-10
  GI50: 2000 nM
  LC50: > 100000 nM
RXF 393
  GI50: 1000 nM
RXF 393; [2]
  CC50: 6310 nM
OVCAR-5
  GI50: 2000 nM
  LC50 (50% lethal concentration): > 100000 nM

— patent US20030187007A1, “Inhibitors of protein kinase for the treatment of disease” (priority 2001, published 2003)
